Measurements from US20120040951A1, “HETEROARYL COMPOUNDS USEFUL AS RAF KINASE INHIBITORS” (priority 2008, published 2012).

How the values were obtained:
[1] = test system: phospho-ERK in melanoma derived WM-266-4 cells; test: Mechanistic cellular assay for Raf kinase activity (phospho-ERK, Bio-Plex); assay type: cell-based; settings: Homo sapiens, treated 1-2 hr at 37° C., serum free medium, read-out: pERK EC50
Summary of the method: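 WM-266-4 melanoma cells (wild-type/V600D BRaf) grown overnight in 10% FBS RPMI, then treated 1–2 h at 37 °C in serum-free RPMI with eight 3-fold dilutions of compound (from 5 mM DMSO stock, 1000× dilution). Lysate phospho-ERK1,2 quantified by Bio-Plex bead immunoassay.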

V599E Raf = V599E Raf (Homo sapiens, UniProt P15056, V600E); test: Biochemical FRET assay, mutant Raf (phosphorylation of MEK); settings: 0.125 nM V599E Raf, 100 nM biotin-MEK, 25 μM ATP, read-out: Raf (mut) inhibition
Chain of V599E Raf (P15056 whole entry V600E): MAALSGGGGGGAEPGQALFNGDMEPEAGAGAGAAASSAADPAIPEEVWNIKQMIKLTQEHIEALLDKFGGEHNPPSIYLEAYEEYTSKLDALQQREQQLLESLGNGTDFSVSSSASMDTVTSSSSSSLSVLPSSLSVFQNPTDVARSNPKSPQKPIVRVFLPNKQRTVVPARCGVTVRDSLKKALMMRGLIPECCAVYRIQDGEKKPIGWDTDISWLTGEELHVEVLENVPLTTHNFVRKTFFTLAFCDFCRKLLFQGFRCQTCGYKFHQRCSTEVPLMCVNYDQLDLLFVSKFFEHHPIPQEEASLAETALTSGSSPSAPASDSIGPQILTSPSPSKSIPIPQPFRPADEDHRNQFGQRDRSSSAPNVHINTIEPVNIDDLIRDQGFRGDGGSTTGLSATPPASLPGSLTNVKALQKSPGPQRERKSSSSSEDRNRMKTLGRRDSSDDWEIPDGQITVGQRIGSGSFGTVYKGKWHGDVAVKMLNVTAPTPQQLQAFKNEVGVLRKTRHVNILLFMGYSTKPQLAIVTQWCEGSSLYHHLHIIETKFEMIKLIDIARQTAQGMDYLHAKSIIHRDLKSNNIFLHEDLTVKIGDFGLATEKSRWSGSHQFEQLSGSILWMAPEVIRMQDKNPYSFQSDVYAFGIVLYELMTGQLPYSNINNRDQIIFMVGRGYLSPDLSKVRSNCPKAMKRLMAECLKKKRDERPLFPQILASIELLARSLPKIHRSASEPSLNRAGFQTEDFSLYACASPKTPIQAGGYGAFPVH
Experimental: (1) Biochemical FRET Assay […]
Inhibitors were diluted 4-fold in 100% DMSO and added to a final concentration of 10 μM to 40 μM to a solution containing 100 nM biotin-MEK, 0.125 nM V599E Raf in 50 mM HEPES, pH 7.4, 60 mM NaCl, 3 mM MgCl2, 2 mM DTT, 0.25 mM MnCl2, 0.01% BSA, and 0.01% Tween-20 and incubated for 20 minutes at room temperature. The kinase reaction was started by the addition of 25 μM ATP to a final volume of 45 μl and allowed to progress for 60 minutes. The reaction was stopped with 15 mM EDTA and 20 nM Streptavidin-APC, 2.5 nM Polyclonal anti p-MEK1/2 (Ser217/221), 2.5 nM Eu-labeled anti-rabbit IgG were added in Lance detection buffer and 5% Superblock in PBS for a final volume of 100 μl. The detection reaction was incubated for 90 minutes at room temperature and then read on an Analyst plate reader using standard TR-FRET (time resolved fluorescence resonance energy transfer) settings for Eu and APC.
Compounds having an activity designated as “A” provided an IC50≦100 nM; compounds having an activity designated as “B” provided an IC50 of 100-1000 nM; and compounds having an activity designated as “C” provided an IC50 of 1000-10,000 nM.

| EC50 [1] [nM] | IC50 (V599E Raf) [nM] | SMILES |
| --- | --- | --- |
| 1000 to 10000 | ≤ 100 | Cc1nn(C)c(C)c1C(=O)N[C@H](C)c1ncc(C(=O)Nc2cc(C(F)(F)F)c(Cl)cn2)s1 [Example 110] |
| 1000 to 10000 | ≤ 100 | Cc1n[nH]c(C)c1C(=O)N[C@H](C)c1ncc(C(=O)Nc2cc(C(F)(F)F)c(Cl)cn2)s1 [Example 111] |
| 1000 to 10000 | ≤ 100 | C[C@@H](NC(=O)c1cnn(Cc2ccccc2)c1)c1ncc(C(=O)Nc2cc(C(F)(F)F)c(Cl)cn2)s1 [Example 118] |
| 1000 to 10000 | ≤ 100 | C[C@@H](NC(=O)c1cnn(-c2ccccn2)c1)c1ncc(C(=O)Nc2cc(C(F)(F)F)c(Cl)cn2)s1 [Example 119] |
| 100 to 1000 | 100 to 1000 | C[C@@H](NC(=O)c1cnn(-c2ccccc2)c1N)c1ncc(C(=O)Nc2cc(C(F)(F)F)c(Cl)cn2)s1 [Example 121] |
| 1000 to 10000 | 100 to 1000 | Cc1nn(C)cc1C(=O)N[C@H](C)c1ncc(C(=O)Nc2cc(C(F)(F)F)c(Cl)cn2)s1 [Example 123] |
| 100 to 1000 | 100 to 1000 | CCc1[nH]ncc1C(=O)N[C@H](C)c1ncc(C(=O)Nc2cc(C(F)(F)F)c(Cl)cn2)s1 [Example 125] |
| ≤ 100 | ≤ 100 | CCn1ncc(C(=O)N[C@H](C)c2ncc(C(=O)Nc3cc(C(F)(F)F)c(Cl)cn3)s2)c1C [Example 126] |
| ≤ 100 | ≤ 100 | C[C@@H](NC(=O)c1cnn(C)c1N)c1ncc(C(=O)Nc2cc(C(F)(F)F)c(Cl)cn2)s1 [Example 127] |
| 100 to 1000 | 100 to 1000 | C[C@@H](NC(=O)c1cnn(C)c1CN1CCCCC1)c1ncc(C(=O)Nc2cc(C(F)(F)F)c(Cl)cn2)s1 [Example 128] |
| 1000 to 10000 | 1000 to 10000 | CNCc1c(C(=O)N[C@H](C)c2ncc(C(=O)Nc3cc(C(F)(F)F)c(Cl)cn3)s2)cnn1C [Example 129] |
| 100 to 1000 | 100 to 1000 | C[C@@H](NC(=O)c1cnn(C)c1CN1CCC(F)(F)C1)c1ncc(C(=O)Nc2cc(C(F)(F)F)c(Cl)cn2)s1 [Example 130] |
| 100 to 1000 | 100 to 1000 | C[C@@H](NC(=O)c1cnn(C)c1CNCCF)c1ncc(C(=O)Nc2cc(C(F)(F)F)c(Cl)cn2)s1 [Example 131] |
| 100 to 1000 | 100 to 1000 | C[C@@H](NC(=O)c1cnn(C)c1CN1CCCC1)c1ncc(C(=O)Nc2cc(C(F)(F)F)c(Cl)cn2)s1 [Example 132] |
| 100 to 1000 | 100 to 1000 | C[C@@H](NC(=O)c1cnn(C)c1CNC1CC1)c1ncc(C(=O)Nc2cc(C(F)(F)F)c(Cl)cn2)s1 [Example 133] |
| 100 to 1000 | 100 to 1000 | CC(C)n1cc(C(=O)N[C@H](C)c2ncc(C(=O)Nc3cc(C(F)(F)F)c(Cl)cn3)s2)cn1 [Example 134] |
| 1000 to 10000 | 100 to 1000 | C[C@@H](NC(=O)c1nc(NC(=O)OC(C)(C)C)cn1C)c1ncc(C(=O)Nc2cc(C(F)(F)F)c(Cl)cn2)s1 [Example 138] |
| 1000 to 10000 | ≤ 100 | COCCn1c(C(=O)NC(C)c2cnc(Nc3ccc(C(F)(F)F)cc3)s2)cnc1C (stereo not shown) [Example 140] |
| 1000 to 10000 | ≤ 100 | C[C@@H](NC(=O)c1cn(-c2ccncc2)cn1)c1ncc(C(=O)Nc2cc(C(F)(F)F)c(Cl)cn2)s1 [Example 148] |
| 1000 to 10000 | ≤ 100 | C[C@@H](NC(=O)c1cnc(C#N)n1C)c1ncc(C(=O)Nc2cc(C(F)(F)F)c(Cl)cn2)s1 [Example 150] |
| 1000 to 10000 | 100 to 1000 | CCCNc1ncc(C(=O)N[C@H](C)c2ncc(C(=O)Nc3cc(C(F)(F)F)c(Cl)cn3)s2)n1C [Example 153] |
| 1000 to 10000 | ≤ 100 | C[C@@H](NC(=O)c1cnc(CN2CCCC2)n1C)c1ncc(C(=O)Nc2cc(C(F)(F)F)c(Cl)cn2)s1 [Example 155] |
| 1000 to 10000 | ≤ 100 | C[C@@H](NC(=O)c1cnc(CN2CCOCC2)n1C)c1ncc(C(=O)Nc2cc(C(F)(F)F)c(Cl)cn2)s1 [Example 156] |
| 100 to 1000 | ≤ 100 | C[C@@H](NC(=O)c1cnc2n1CCCN2C)c1ncc(C(=O)Nc2cc(C(F)(F)F)c(Cl)cn2)s1 [Example 167] |
| ≤ 100 | ≤ 100 | CCn1cnc2cnc(C(=O)N[C@H](C)c3cnc(Nc4ccc(C(F)(F)F)cc4)cn3)cc21 [Example 174] |
| ≤ 100 | ≤ 100 | CC(NC(=O)c1cc2c(cn1)ncn2C1CCC1)c1cnc(Nc2ccc(C(F)(F)F)cc2)cn1 (stereo not shown) [Example 175] |
| ≤ 100 | ≤ 100 | C[C@@H](NC(=O)c1cc2c(cn1)ncn2C1CCC1)c1cnc(Nc2ccc(C(F)(F)F)cc2)s1 [Example 176] |

| EC50 [1] [nM] | IC50 (V599E Raf) [nM] | SMILES |
| --- | --- | --- |
| 100 to 1000 | ≤ 100 | CC(NC(=O)c1cnc2n1CCCN2)c1cnc(Nc2ccc(C(F)(F)F)cc2)s1 (stereo not shown) [Example 177] |
| 100 to 1000 | ≤ 100 | CC(NC(=O)c1cc2c(cn1)ncn2C1CNC1)c1cnc(Nc2ccc(C(F)(F)F)cc2)cn1 (stereo not shown) [Example 179] |
| 100 to 1000 | ≤ 100 | CC(NC(=O)c1cc2c(cn1)ncn2C1CN(C(C)C)C1)c1cnc(Nc2ccc(C(F)(F)F)cc2)cn1 (stereo not shown) [Example 181] |
| 100 to 1000 | ≤ 100 | C[C@@H](NC(=O)c1cc2c(cn1)ncn2C1CN(C)C1)c1cnc(Nc2ccc(C(F)(F)F)cc2)s1 [Example 182] |
| ≤ 100 | ≤ 100 | CC(C)N1CC(n2cnc3cnc(C(=O)N[C@H](C)c4cnc(Nc5ccc(C(F)(F)F)cc5)s4)cc32)C1 [Example 183] |
| 100 to 1000 | ≤ 100 | C[C@@H](NC(=O)c1cc2c(cn1)ncn2CCS(C)(=O)=O)c1cnc(Nc2ccc(C(F)(F)F)cc2)s1 [Example 185] |
| 1000 to 10000 | 100 to 1000 | C[C@H](NC(=O)c1cc2c(cn1)ncn2C1CCC1)c1cnc(Nc2ccc(C(F)(F)F)cc2)cn1 [Example 187] |
| 1000 to 10000 | ≤ 100 | O=C(NCc1cnc(Nc2ccc(C(F)(F)F)cc2)s1)c1ccc2ncccc2c1 [Example 189] |
| 100 to 1000 | ≤ 100 | CC(NC(=O)c1ncc2ncn(C)c2n1)c1cnc(Nc2ccc(C(F)(F)F)cc2)s1 (stereo not shown) [Example 190] |
| 100 to 1000 | ≤ 100 | CCn1cnc2cnc(C(=O)NC(C)c3cnc(Nc4ccc(C(F)(F)F)cc4)s3)nc21 (stereo not shown) [Example 198] |
| ≤ 100 | ≤ 100 | CC(NC(=O)c1cc2c(cn1)nc(N)n2C)c1cnc(Nc2ccc(C(F)(F)F)cc2)s1 (stereo not shown) [Example 199] |
| ≤ 100 | ≤ 100 | CC(NC(=O)c1cc2c(cn1)nc(N)n2C)c1cnc(Nc2ccc(C(F)(F)F)cc2)cn1 (stereo not shown) [Example 201] |
| ≤ 100 | ≤ 100 | CC(NC(=O)c1cc2cn(C)nc2cn1)c1cnc(Nc2ccc(C(F)(F)F)cc2)s1 (stereo not shown) [Example 203] |
| 100 to 1000 | ≤ 100 | CCn1cc2cc(C(=O)NC(C)c3cnc(Nc4ccc(C(F)(F)F)cc4)s3)ncc2n1 (stereo not shown) [Example 207] |
| ≤ 100 | 100 to 1000 | C[C@@H](NC(=O)c1cnn2ccccc12)c1cc(C(=O)Nc2ccc(Br)c(C(F)(F)F)c2)on1 [Example 209] |
| 1000 to 10000 | ≤ 100 | C[C@@H](NC(=O)c1cnn2ccccc12)c1cc(C(=O)Nc2nc3ccccc3[nH]2)on1 [Example 211] |
| 1000 to 10000 | ≤ 100 | C[C@@H](NC(=O)c1cnn2ccccc12)c1cc(C(=O)Nc2nc3cc(Cl)ccc3o2)on1 [Example 212] |
| 100 to 1000 | 100 to 1000 | COc1ccc(C(F)(F)F)cc1NC(=O)c1cc([C@@H](C)NC(=O)c2cnn3ccccc23)no1 [Example 214] |
| 100 to 1000 | ≤ 100 | C[C@@H](NC(=O)c1cnn2ccccc12)c1cc(C(=O)Nc2cccc(OC(F)(F)F)c2)on1 [Example 217] |
| ≤ 100 | ≤ 100 | Cc1ccc(NC(=O)c2cc([C@@H](C)NC(=O)c3cnn4ccccc34)no2)cc1C(F)(F)F [Example 218] |
| 100 to 1000 | 100 to 1000 | Cc1cc2nc(NC(=O)c3cc([C@@H](C)NC(=O)c4cnn5ccccc45)no3)[nH]c2cc1C [Example 219] |
| 100 to 1000 | ≤ 100 | C[C@@H](NC(=O)c1cnn2ccccc12)c1cc(C(=O)Nc2ccc(Cl)c(C(F)(F)F)c2)on1 [Example 220] |
| 100 to 1000 | 100 to 1000 | Cc1ccc(NC(=O)c2cc([C@@H](C)NC(=O)c3cnn4cccnc34)no2)cc1C(F)(F)F [Example 221] |
| ≤ 100 | 100 to 1000 | CC(NC(=O)c1cnn2ccccc12)c1ncc(C(=O)Nc2ccc(Cl)c(C(F)(F)F)c2)s1 (stereo not shown) [Example 222] |
| ≤ 100 | 100 to 1000 | CC(NC(=O)c1cnn2ccccc12)c1ncc(C(=O)Nc2cc(C(F)(F)F)c(Cl)cn2)s1 (stereo not shown) [Example 223] |
| 100 to 1000 | ≤ 100 | CC(NC(=O)c1cnn2ccccc12)c1cnc(Nc2ccc(C(F)(F)F)cc2)s1 (stereo not shown) [Example 224] |
